Values after ≈ are worked out from the molar mass of the structure shown. “Also recorded” adds a separate entry of the source.
How the values were obtained:
[1] = tested on: Enterococcus faecium and Enterococcus faecalis strains resistant to vancomycin, linezolid, azithromycin, ciprofloxacin, levofloxacin, gentamicin, and …; assay type: cell-based; settings: panel of E. faecium and E. faecalis strains resistant to vancomycin, doxycycline
Protocol: (§1) Minimum inhibitory concentrations (MICs) were determined by broth microdilution method or agar dilution method following the Clinical and Laboratory Standards Institute guidelines. Standard bacterial strains were obtained from American Type Culture Collection (ATCC). Other bacterial strains were obtained from hospitals and commercial sources, so noted in Table 11. Before the start of the MIC experiment, standard and test compound stock solutions were prepared in dimethyl sulfoxide (DMSO, Aldrich D2650) at a stock concentration of 5,120 μg/mL. The compound concentration range typically employed for each experiment was 128-0.06 μg/mL (2.5% final DMSO concentration). Clindamycin was used as a comparator in all experiments and each experiment was performed in triplicate. Specialized procedures were employed for streptococcal and anaerobic strains. All other bacterial strains were sub-cultured on blood agar plates (tryptic soy agar with 5% sheep blood, Hardy Diagnostics) and incubated overnight at 35° C. Organisms were suspended in cation-adjusted Mueller-Hinton broth (CaMHB, BD 212322) and optical density was adjusted to 0.5 McFarland standard. Suspensions were further diluted to obtain a final inoculum of 5×10^5 CFU/mL for broth microdilution experiments.

E. faecalis ATCC 29212 = experiment: Spontaneous resistance in standard bacterial strains; assay type: cell-based; settings: agar with 4×, 8×, 16× MIC, 3 days
Protocol: (§2) […]. Bacterial strains (S. aureus ATCC 29213, S. aureus MRSA, and E. faecalis ATCC 29212) were suspended in normal saline and optical density was adjusted to 1.50 at 600 nm. Bacterial counts were measured by serial dilution and plating. Bacterial inoculum (250 μL) was transferred to the media plate and was spread evenly. Plates were incubated at 37° C. for 3 days, and were observed daily for resistant colonies to emerge.

[2] = tested on: S. aureus ATCC 29213, S. aureus MRSA; experiment: as above; assay type: cell-based; settings: agar with 4×, 8×, 16× MIC, 3 days
Protocol: as §2

E. coli MP-9 ΔTolC = experiment: MIC (broth microdilution or agar dilution, CLSI); assay type: cell-based; settings: Escherichia coli
Outline: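 Per CLSI, MICs by broth microdilution or agar dilution; strains other than streptococci and anaerobes were sub-cultured overnight at 35° C on blood agar, with a final broth inoculum of 5×10^5 CFU/mL.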

[3] = tested on: mammalian cells (A549, K562, HCT116, HepG2); experiment: Mammalian cell growth inhibition (CellTiter-Blue cell viability assay); assay type: cell-based, human; settings: cell-culture safety profiling; result in words
Protocol: (§3) Mammalian cell experiments: All compounds were dissolved in sterile DMSO to a stock concentration of 20 μM and aliquoted prior to freezing at −20° C. Aliquots were limited to a maximum of 3 freeze-thaw cycles. A549 (human pulmonary carcinoma; […]) cells were cultured in Dulbecco's Modified Eagle Medium (DMEM) supplemented with 10% fetal bovine serum. K562 (human chronic myelogenous leukemia; […]) cells were cultured in Iscove's Modification of DMEM (IMDM) media supplemented with 10% fetal bovine serum. HCT116 (human colorectal carcinoma; […]) cells were cultured in McCoy's 5a (Iwakata & Grace Modification) media supplemented with 10% fetal bovine serum. HepG2 (human hepatocellular carcinoma; […]) cells were cultured in Eagle's Minimum Essential Medium (EMEM) supplemented with 10% fetal bovine serum. All cell cultures were maintained in a 5% CO2 incubator at 37° C.
(§4) Growth inhibition was studied using the Promega CellTiter-Blue cell viability assay pursuant to the manufacturer's protocol. Briefly, cells were harvested, diluted, and mixed with the desired concentration of test compound. […] Plates were read on a SpectraMax i3 plate reader. GI50 values were determined by nonlinear regression using GraphPad Prism and represent the mean of at least three independent experiments.

[4] = as above; assay type: cell-based, human; settings: human, A549, K562, HCT116 and HepG2 cells; mammalian cells, 72 h
Protocol: as §3, §4

E. coli HAV504 = experiment: Murine neutropenic thigh infection model; assay type: in vivo, mice; settings: neutropenic mouse thigh, E. coli HAV504 (FIG. 4C)
ribosome = experiment: Toeprinting analysis (primer extension inhibition) in cell-free translation, ermBL and ermDL templates; assay type: biochemical; settings: 50 μM
Protocol: Toeprinting analysis: The ermBL DNA template for toeprinting was generated by a 4-primer cross-over PCR using primers T7, NV1, ermB3-F and ermB3-R. The ermDL template was generated in the same way using primers RLR-fwd, RLR-rev, T7-SD-fwd and T7-SD-rev. In vitro translation in the PURExpress system (New England Biolabs) and toeprinting analysis were carried out as described previously. […]
Primer sequences used for toeprinting are as follows: T7 (TAATACGACTCACTATAGGG); NV1 (GGTTATAATGAATTTTGCTTATTAAC); ermB3-F (TAATACGACTCACTATAGGGCTTAAGTATAAGGAGGAAAAAATATGTTGGTATTCCAAATGCGTAATGTAGATAAAACATCTAC); ermB3-R (GGTTATAATGAATTTTGCTTATTAACGATAGAATTCTATCACTTATTTCAAAATAGTAGATGTTTTATCTACATTACG); RLR-fwd (GGAGGAAAAAATATGACACACTCAATGAGACTTCGTATTTTCCC); RLR-rev (CTATCACTTACAAAGTTGGGAAAATACGAAGTCTCATTGAG); T7-SD-fwd (TAATACGACTCACTATAGGGCTTAAGTATAAGGAGGAAAAAATATGACACACTCAATG); T7-SD-rev (GGTTATAATGAATTTTGCTTATTAACGATAGAATTCTATCACTTACAAAGTTGGGAAAAT).

E. faecalis VRE = experiment: MIC (CLSI), first E. faecalis VRE line of Table 4; assay type: cell-based; settings: Enterococcus faecalis, VRE
Protocol: as §1

| Compound | MICs [1] [µg/mL] | spontaneous resistance (E. faecalis ATCC 29212) | spontaneous resistance [2] | MIC (E. coli MP-9 ΔTolC) [µg/mL] | toxicity toward mammalian cells [3] | GI50 at 72 h [4] [µM] | efficacy in thigh infection model (E. coli HAV504) | translation arrest at the start codons of model ORFs (toeprinting) (ribosome) | MIC (E. faecalis VRE) [µg/mL] |
| --- | --- | --- | --- | --- | --- | --- | --- | --- | --- |
| CSC1O[C@H]([C@H](NC(=O)[C@H]2NC[C@@H]3C[C@H](CC(C)C)CCO[C@H]32)[C@H](C)Cl)C(O)[C@@H](O)[C@H]1O (stereo partly drawn) [FSA-513018b] | ≤ 2 | not observed; also recorded: No colonies were noted on any plate | not observed; also recorded: No colonies were noted on any plate | 0.5 (≈ 1.01 µM) | non-toxic | > 50 | effective | firmly locked the ribosome at the start codons, allowing virtually no escape |  |
| CCC[C@@H]1C[C@@H](C(=O)N[C@@H]([C@H]2O[C@H](SC)[C@H](O)[C@@H](O)[C@H]2O)[C@H](C)Cl)N(C)C1 [Clindamycin, clindamycin, reference compound] |  |  |  |  |  |  |  |  | > 128 |
